“Also recorded” adds a separate entry of the source.
Legend:
[1] = tested on: GLUT1-DS patients with non-epileptic paroxysmal manifestations; assay: Open-label pilot study in GLUT1-DS patients: paroxysmal events diary and clinical scales; assay type: in vivo, human
From the text: This example describes an open-label pilot study with four phases of 2 months each (baseline, treatment […], and resumption of treatment) in eight GLUT1-DS patients (7-47 years old) with non-epileptic paroxysmal manifestations.
Participants were enrolled in an interventional clinical protocol. Four children and four adults with GLUT1-DS were enrolled. […] All patients were on a normal diet prior to their enrollment. As noted above, the study was divided into four phases of 2 months each (baseline, treatment, withdrawal, and resumption of treatment). A trained dietitian determined patients' caloric intake and adapted the daily menus so the diets remained isocaloric when triheptanoin was introduced.
A comprehensive diary was kept for each patient to record all motor and non-motor paroxysmal events—including dystonia, tremor, speech disorder, stiffness, paresis, headaches, confusion, and lethargy. At each visit, patients were evaluated with a six minute walk test (6MWT), a nine-hole pegboard test (NHPT), the clinical global impression-improvement scale (CGI-I) and a fatigue severity scale (KFFS or visual analogue scale for patients <15 years old). Blood samples were collected after an overnight fast for standard analyses, and the measurement of plasma C3-carnitine and C5-ketone bodies (Mochel et al., 2005, Molecular Genetics and Metabolism 84: 305-312).
(§1) Paired t-tests were used for plasma analyses before and after treatment. For clinical parameters, Friedman tests were used to test the global hypothesis that all study phases were equal. If significant, Wilcoxon signed-rank tests were applied for pair-wise phase comparisons with an alpha of 0.05. For the Pi/PCr ratio, repeated measures ANOVA were used to test the global hypothesis that all time points—rest, activation and recovery—were equal. If significant, paired t-tests were applied for pair-wise time comparisons with an alpha of 0.05.

[2] = tested on: brain response to cortical activation; assay: Functional 31P-NMR spectroscopy (f-MRS) of brain, Pi/PCr ratio during visual activation; assay type: in vivo, human
Method: Functional ^31P-NMR spectroscopy (f-MRS) was performed at 3 T at the end of each study phase in patients >15 years old (n=5). Data were collected for 4 minutes at rest, 8 minutes during visual activation, 8 minutes after stimulation, and analyzed as described (Adanyeguh et al., 2015, Neurology 84: 490-495 and Mochel et al., 2012, Mov Disord. 27: 907-910). The ratio of Pi/PCr was calculated to determine the brain response to cortical activation.
as §1

## CCCCCCC(=O)OCC(COC(=O)CCCCCC)OC(=O)CCCCCC [triheptanoin]
[1]; 1 g/kg/day oral, all patients
  tolerability: well tolerated
[1]; after treatment was resumed
  paroxysmal manifestations: dropped significantly
[1]; treated 2 months and on resumption, p<0.05
  non-epileptic paroxysmal manifestations (FIG. 1): significant reduction
[1]; treated 2 months, 1 g/kg/day oral, n=6, baseline 16 (±19, 1-54)
  average number of dystonic events: 2
[1]; treated 2 months, 1 g/kg/day oral, n=6, baseline average 31 (±28, 10-85), p=0.028
  average number of paroxysmal manifestations: 3 (±3, 0-7)
[1]; treatment phase
  performance during the 6MWT and NHPT: unchanged
[1]; treatment phase, all patients
  CGI-I scale: much improved
[1]; treatment phase, did not reach significance
  fatigue score: tended to improve
[1]; withdrawal phase
  fatigue score: worsened
[1]; withdrawal phase, 2 months
  average number of dystonic events: 13
[1]; withdrawal phase, 2 months, p=0.043
  average number of paroxysmal manifestations: 24
[1]; withdrawal phase, five out of six patients
  CGI-I scale: much worse
[2]; after 2 months on triheptanoin, ANOVA p=0.014, patients >15 years, n=5
  f-MRS bioenergetics profile: corrected; also recorded: normalized
[2]; after treatment withdrawal
  f-MRS profile: came back abnormal
